Each structure is given as a SMILES string.

This test has as its system lung cancer cell line NCI-H82. Put plainly: Cell proliferation assay, NCI-H82 (CELL-TITER GLO). The format is cell-based. The settings on record: Homo sapiens, NCI-H82, 72 h, NCI-H82 cells, 72 h incubation, cell viability by CELL-TITER GLO, top concentration 1 μM; read-out: EC50, Inhibition of NCl-H82 Cell Proliferation. Here is the method:
The activity of a compound was determined in a cell proliferation assay using the lung cancer cell line NCI-H82. Cells (1,000 cells per well) were cultured with RPMI1640 in a 384-well tissue culture plate. After incubated overnight, the compound was added at predetermined concentrations, starting with 1 μM and followed by a 3-fold serial dilution. After the cells were incubated for 72 h, cell viability was determined using a CELL-TITER GLO assay. The CELL-TITER GLO reagent (25 μL) was added to each well and the luminescence was measured by a multimode microplate reader after a brief period of shaking. EC50 values were determined for the compound. The results are summarized in Table 1, wherein A represents a value no greater than 200 nM, B represents a value greater than 200 nM but no greater than 1 μM, C represents a value greater than 1 μM but no greater than […], and D represents a value greater than 5 μM.
As to `C#Cc1nc(NC(=O)N[C@@H](CO)c2ccc(-c3cccnc3N(C)C)cc2)cs1` [Compound A98, (R)-1-(1-(4-(2-(Dimethylamino)pyridin-3-yl)phenyl)-2-hydroxyethyl)-3-(2-ethynylthiazol-4-yl)urea], the EC50 is no more than 200 nM.

For the molecule `C#Cc1nc(NC(=O)N[C@@H](COC(N)=O)c2ccc(-c3cc(C#N)ccn3)cc2)cs1` [Compound A48, (R)-2-(4-(4-Cyanopyridin-2-yl)phenyl)-2-(3-(2-ethynylthiazol-4-yl)ureido)ethyl carbamate], the EC50 was no more than 200 nM.

Take `C#Cc1nc(NC(=O)N[C@@H](COC(N)=O)c2ccc(-c3cccc4ncsc34)cc2)cs1` [Compound A223, (R)-2-(4-(Benzo[d]thiazol-7-yl)phenyl)-2-(3-(2-ethynylthiazol-4-yl)ureido)ethyl carbamate]: the EC50 is no more than 200 nM.

Regarding `C#Cc1nc(N(C)C(=O)N(C)[C@@H](CO)c2ccc(-c3cccc4ncsc34)cc2)cs1` [Compound A113, (R)-1-(1-(4-(Benzo[d]thiazol-7-yl)phenyl)-2-hydroxyethyl)-3-(2-ethynylthiazol-4-yl)-1,3-dimethylurea], the EC50 fell in the range of 200 to 1000 nM.

Consider `C#Cc1nc(NC(=O)NCc2ccc(-c3cccc4ncsc34)cc2C#N)cs1` [Compound A177, 1-(4-(Benzo[d]thiazol-7-yl)-2-cyanobenzyl)-3-(2-ethynylthiazol-4-yl)urea], for which the EC50 lay within 200 to 1000 nM.

For `C#Cc1nc(NC(=O)N[C@@H](CO)c2ccc(N3CCCCC3)cc2)cs1` [Compound A195, (R)-1-(2-Ethynylthiazol-4-yl)-3-(2-hydroxy-1-(4-(piperidin-1-yl)phenyl)ethyl)-urea], the EC50 is no more than 200 nM.

Turning to `C#Cc1cccc(NC(=O)N[C@@H](CO)c2ccc(-c3cccc(N4CCCC4)n3)cc2)n1` [Compound A124, (R)-1-(6-Ethynylpyridin-2-yl)-3-(2-hydroxy-1-(4-(6-(pyrrolidin-1-yl)pyridin-2-yl)phenyl)ethyl)urea], the EC50 lay in the range of 200 to 1000 nM.

Regarding `C#Cc1nc(NC(=O)N2CCN(c3ccc(-c4cccc5nc(N)sc45)cc3)CC2)cs1` [Compound B27, 4-(4-(2-Aminobenzo[d]thiazol-7-yl)phenyl)-N-(2-ethynylthiazol-4-yl)piperazine-1-carboxamide], the EC50 is no more than 200 nM.

For `C#Cc1nc(NC(=O)N2CCN(c3ccc(-c4cccc(N5CCCC5)c4)cc3)C[C@@H]2CO)cs1` [Compound B54, (R)—N-(2-Ethynylthiazol-4-yl)-2-(hydroxymethyl)-4-(3′-(pyrrolidin-1-yl)-[1,1′-biphenyl]-4-yl)piperazine-1-carboxamide], the EC50 is no more than 200 nM.

Regarding `C#Cc1nc(NC(=O)NCc2ccc(-c3cccc4nc(N5CC(F)(F)C5)nc(O)c34)cc2)cs1` [Compound A171, 1-(4-(2-(3,3-Difluoroazetidin-1-yl)-4-hydroxyquinazolin-5-yl)benzyl)-3-(2-ethynylthiazol-4-yl)urea], the EC50 is no more than 200 nM.

In the case of `C#Cc1nc(NC(=O)N[C@@H](CO)c2ccc(-c3ccc(F)cc3C3(C#N)CC3)cn2)cs1` [Compound A75, (R)-1-(1-(5-(2-(1-Cyanocyclopropyl)-4-fluorophenyl)pyridin-2-yl)-2-hydroxy-ethyl)-3-(2-ethynylthiazol-4-yl)urea], the EC50 is no more than 200 nM.

Consider `C#Cc1nc(NC(=O)N[C@@H](CO)c2ccc(-c3cccc(C4CC4(F)F)c3)cc2)cs1` (stereo partly drawn) [Compound A188, 1-((1R)-1-(3′-(2,2-Difluorocyclopropyl)-[1,1′-biphenyl]-4-yl)-2-hydroxyethyl)-3-(2-ethynylthiazol-4-yl)urea], for which the EC50 is no more than 200 nM.

In the case of `C#Cc1nc(NC(=O)N[C@@H](COC(N)=O)c2ccc(-c3ccc(F)cc3C3CC3(F)F)cn2)cs1` (stereo partly drawn) [Compound A83, (2R)-2-(5-(2-(2,2-Difluorocyclopropyl)-4-fluorophenyl)pyridin-2-yl)-2-(3-(2-ethynylthiazol-4-yl)ureido)ethyl carbamate], the EC50 is no more than 200 nM.

Take `C#Cc1nc(NC(=O)N[C@@H](CO)c2ccc(-c3cccc(N4CCCC4)n3)cc2)cs1` [Compound A88, (R)-1-(2-Ethynylthiazol-4-yl)-3-(2-hydroxy-1-(4-(6-(pyrrolidin-1-yl)pyridin-2-yl)phenyl)ethyl)urea]: the EC50 was no more than 200 nM.

For `C#Cc1nc(NC(=O)N[C@@H](CO)c2ccc(C3=CCCN(C)C3)cc2)cs1` [Compound A193, (R)-1-(2-Ethynylthiazol-4-yl)-3-(2-hydroxy-1-(4-(1-methyl-1,2,5,6-tetrahydro-pyridin-3-yl)phenyl)ethyl)urea], the EC50 was 200 to 1000 nM.

As to `C#Cc1nnc(NC(=O)N[C@@H](COC(N)=O)c2ccc(-c3cccc(N4CCCC4)n3)cc2)s1` [Compound A94, (R)-2-(3-(5-Ethynyl-1,3,4-thiadiazol-2-yl)ureido)-2-(4-(6-(pyrrolidin-1-yl)-pyridin-2-yl)phenyl)ethyl carbamate], the EC50 was no more than 200 nM.

As to `C#Cc1nc(NC(=O)N[C@@H](CO)c2ccc(-c3cccc(C4(C#N)CC4)c3)cc2)cs1` [Compound A187, (R)-1-(1-(3′-(1-Cyanocyclopropyl)-[1,1′-biphenyl]-4-yl)-2-hydroxyethyl)-3-(2-ethynylthiazol-4-yl)urea], the EC50 is no more than 200 nM.

`C#Cc1nc(NC(=O)N[C@@H](CO)c2ccc(-c3cccnc3N(C)C)c(Cl)c2)cs1` [Compound A100, (R)-1-(1-(3-Chloro-4-(2-(dimethylamino)pyridin-3-yl)phenyl)-2-hydroxyethyl)-3-(2-ethynylthiazol-4-yl)urea]: the EC50 is no more than 200 nM.

For `C#Cc1nc(NC(=O)NC(C(=O)NC)c2ccc(-c3cccc4ncsc34)cc2)cs1` (centres unmarked) [Compound A214, 2-(4-(Benzo[d]thiazol-7-yl)phenyl)-2-(3-(2-ethynylthiazol-4-yl)ureido)-N-methylacetamide], the EC50 was no more than 200 nM.

For the molecule `C#Cc1nc(NC(=O)NCc2ccc(N3CCC[C@H]3C#N)cc2)cs1` [Compound A32, (S)-1-(4-(2-Cyanopyrrolidin-1-yl)benzyl)-3-(2-ethynylthiazol-4-yl)urea], the EC50 was no more than 200 nM.

On to `C#Cc1nc(N(C)C(=O)N[C@@H](CO)c2ccc(-c3cccc4ncsc34)cc2)cs1` [Compound A112, (R)-3-(1-(4-(Benzo[d]thiazol-7-yl)phenyl)-2-hydroxyethyl)-1-(2-ethynylthiazol-4-yl)-1-methylurea], for which the EC50 is no more than 200 nM.

For `C#Cc1nc(NC(=O)N[C@H](CO)C(=O)N2CCC(N3CC(F)(F)C3)CC2)cs1` [Compound A160, (R)-1-(1-(4-(3,3-Difluoroazetidin-1-yl)piperidin-1-yl)-3-hydroxy-1-oxopropan-2-yl)-3-(2-ethynylthiazol-4-yl)urea], the EC50 was 200 to 1000 nM.

As to `C#Cc1nc(NC(=O)N[C@@H](COC(N)=O)c2ccc(-c3cccc4nsnc34)cc2)cs1` [Compound A226, (R)-2-(4-(Benzo[c][1,2,5]thiadiazol-4-yl)phenyl)-2-(3-(2-ethynylthiazol-4-yl)-ureido)ethyl carbamate], the EC50 is no more than 200 nM.

For `C#Cc1nc(NC(=O)N[C@@H](CO)c2ccc(-c3cccc4ncnc(O)c34)c(Cl)c2)cs1` [Compound A110, (R)-1-(1-(3-Chloro-4-(4-hydroxyquinazolin-5-yl)phenyl)-2-hydroxyethyl)-3-(2-ethynylthiazol-4-yl)urea], the EC50 is no more than 200 nM.

For `C#Cc1nc(NC(=O)NC(C(N)=O)c2ccc(-c3cccc4ncsc34)cc2)cs1` (centres unmarked) [Compound A209, 2-(4-(Benzo[d]thiazol-7-yl)phenyl)-2-(3-(2-ethynylthiazol-4-yl)ureido)acetamide], the EC50 is no more than 200 nM.

Turning to `C#Cc1nc(NC(=O)N[C@@H](CO)c2ccc(-c3cccnc3C3(C#N)CC3)c(Cl)c2)cs1` [Compound A65, (R)-1-(1-(3-Chloro-4-(2-(1-cyanocyclopropyl)pyridin-3-yl)phenyl)-2-hydroxy-ethyl)-3-(2-ethynylthiazol-4-yl)urea], the EC50 was no more than 200 nM.

Regarding `C#Cc1nc(NC(=O)N[C@@H](CO)c2ccc(N3CCCC(F)(F)C3)cn2)cs1` [Compound A136, (R)-1-(1-(5-(3,3-Difluoropiperidin-1-yl)pyridin-2-yl)-2-hydroxyethyl)-3-(2-ethynylthiazol-4-yl)urea], the EC50 was no more than 200 nM.

For the molecule `C#Cc1nc(NC(=O)NCc2ccc(-c3cc(N4CCCC4)ccn3)cc2)cs1` [Compound A173, 1-(2-Ethynylthiazol-4-yl)-3-(4-(4-(pyrrolidin-1-yl)pyridin-2-yl)benzyl)urea], the EC50 fell in the range of 200 to 1000 nM.

`C#Cc1nc(NC(=O)N[C@@H](CO)c2ccc(C3CCCN(C(C)=O)C3)cc2)cs1` (stereo partly drawn) [Compound A194, 1-((1R)-1-(4-(1-Acetylpiperidin-3-yl)phenyl)-2-hydroxyethyl)-3-(2-ethynyl-thiazol-4-yl)urea]: the EC50 is 200 to 1000 nM.

Regarding `C#Cc1nc(NC(=O)N[C@@H](COC(N)=O)c2ccc(-c3ncccc3C#N)cc2)cs1` [Compound A47, (R)-2-(4-(3-Cyanopyridin-2-yl)phenyl)-2-(3-(2-ethynylthiazol-4-yl)ureido)ethyl carbamate], the EC50 was no more than 200 nM.

As for `C#Cc1nc(NC(=O)NCC(=O)N2CCC(c3ccccc3C#N)CC2)cs1` [Compound A35, 1-(2-(4-(2-Cyanophenyl)piperidin-1-yl)-2-oxoethyl)-3-(2-ethynylthiazol-4-yl)urea], the EC50 lay in the range of 200 to 1000 nM.

In the case of `C#Cc1nc(NC(=O)N[C@@H](COC(=O)CCC/C=C\C/C=C\C/C=C\C/C=C\CCCCC)c2ccc(-c3cccc4ncsc34)cc2)cs1` [Compound A117, (5Z,8Z,11Z,14Z)—(R)-2-(4-(Benzo[d]thiazol-7-yl)phenyl)-2-(3-(2-ethynylthiazol-4-yl)ureido)ethyl icosa-5,8,11,14-tetraenoate], the EC50 was no more than 200 nM.

The values above are taken from US20240101546A1, “HETEROARYL-ACETYLENES, PHARMACEUTICAL COMPOSITIONS THEREOF, AND THEIR THERAPEUTIC APPLICATIONS” (Eubulus Biotherapeutics Inc., priority 2020, published 2024).
